Assay results from patent publication US20240270821A1, “GIP/GLP1/GCG TRI-RECEPTOR AGONISTS AND USES THEREOF” (priority 2023, published 2024).
Starred links: 1 amine or outer side, 2 acyl side, 3 side chain; linkers in the order of their positions; H or OH if unused. Non-standard residues stand in square brackets, D forms with d. Groups on a side chain read outwards from the residue. *: point of attachment. C18 diacid = O=C(O)CCCCCCCCCCCCCCCCC(=O)*; γGlu = O=C(O)[C@H](CCC(=O)[*:2])N[*:1]; αMe4Pal = C[C@](N)(Cc1ccncc1)C(=O)O; αMeY = C[C@](N)(Cc1ccc(O)cc1)C(=O)O; 4Pal = N[C@@H](Cc1ccncc1)C(=O)O; αMeL = CC(C)C[C@](C)(N)C(=O)O; Orn = NCCC[C@H](N)C(=O)O; AEEA = NCCOCCOCC(=O)O; Aib = CC(C)(N)C(=O)O

Tests used:
Assay type in all cases: cell-based
hGLP-1R [1] = target: T1, hGLP-1R (Homo sapiens, UniProt P43220); assay: Functional cAMP activation in the presence of 0.1% casein (no HSA); conditions: in the presence of 0.1% casein (no HSA); geometric mean; read-out: Relative cAMP EC50, hGLP-1R;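 also: intracellular cAMP rise after 30 min at 37 °C read by HTRF, normalized between buffer only (0%) and maximal control ligand (100%), four-parameter variable-slope fit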
human GcgR = human GcgR (Homo sapiens, UniProt P47871); assay: Functional cAMP activity in the presence of 1% HSA; conditions: read-out: cAMP Rel EC50, hGcgR
hGcgR = hGcgR (Homo sapiens, UniProt P47871); assay: Functional cAMP activation in the presence of 0.1% casein (no HSA); conditions: in the presence of 0.1% casein (no HSA); geometric mean; read-out: Relative cAMP EC50, hGcgR;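 also: intracellular cAMP rise after 30 min at 37 °C, read by HTRF against a cAMP standard curve, scaled from buffer only (0%) to maximal control ligand response (100%)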
Experimental: After a 30-minute incubation at 37° C., the resulting increase in intracellular cAMP is quantitatively determined using the CisBio CAMP Dynamic 2 HTRF Assay Kit (62AM4PEJ). Briefly, cAMP levels within the cell are detected by adding the cAMP-d2 conjugate in cell lysis buffer followed by the antibody anti-cAMP-Eu^3+-Cryptate, also in cell lysis buffer.
Intracellular cAMP levels are determined by extrapolation using a standard curve. Dose response curves of compounds are plotted as the percentage of stimulation normalized to minimum (buffer only) and maximum (maximum concentration of each control ligand) values and analyzed using a four parameter non-linear regression fit with a variable slope (Genedata Screener 13). EC50 is the concentration of compound causing half-maximal simulation in a dose response curve. Each relative EC50 value for the Geometric mean calculation is determined from a curve fitting.

hGIPR [2] = target: T2, hGIPR (Homo sapiens, UniProt P48546); assay: Functional cAMP activity in the presence of 1% HSA; conditions: read-out: cAMP Rel EC50, hGIPR
T2 sequence (P48546 22-466): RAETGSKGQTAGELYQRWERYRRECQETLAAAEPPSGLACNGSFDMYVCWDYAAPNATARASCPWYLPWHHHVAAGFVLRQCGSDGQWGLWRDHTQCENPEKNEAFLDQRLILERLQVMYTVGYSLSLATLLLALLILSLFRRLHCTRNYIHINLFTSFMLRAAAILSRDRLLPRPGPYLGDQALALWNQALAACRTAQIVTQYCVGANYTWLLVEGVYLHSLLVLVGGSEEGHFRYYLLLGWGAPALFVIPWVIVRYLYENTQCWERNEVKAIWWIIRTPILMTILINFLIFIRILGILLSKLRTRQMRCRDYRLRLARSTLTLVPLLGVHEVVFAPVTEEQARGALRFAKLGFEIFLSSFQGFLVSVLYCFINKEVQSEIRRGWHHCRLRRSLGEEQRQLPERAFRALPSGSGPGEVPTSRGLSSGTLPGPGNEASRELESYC

hGLP-1R [3] = target: T1, hGLP-1R; assay: Functional cAMP activity in the presence of 1% HSA; conditions: read-out: cAMP Rel EC50, hGLP-1R
hGIPR [4] = target: T2, hGIPR; assay: Functional cAMP activation in the presence of 0.1% casein (no HSA); conditions: in the presence of 0.1% casein (no HSA); geometric mean; read-out: Relative cAMP EC50, hGIPR;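 also: intracellular cAMP rise after 30 min at 37 °C read by HTRF against a standard curve, scaled between buffer alone (0%) and top control ligand concentration (100%), four-parameter fit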

T1 sequence (P43220 24-463): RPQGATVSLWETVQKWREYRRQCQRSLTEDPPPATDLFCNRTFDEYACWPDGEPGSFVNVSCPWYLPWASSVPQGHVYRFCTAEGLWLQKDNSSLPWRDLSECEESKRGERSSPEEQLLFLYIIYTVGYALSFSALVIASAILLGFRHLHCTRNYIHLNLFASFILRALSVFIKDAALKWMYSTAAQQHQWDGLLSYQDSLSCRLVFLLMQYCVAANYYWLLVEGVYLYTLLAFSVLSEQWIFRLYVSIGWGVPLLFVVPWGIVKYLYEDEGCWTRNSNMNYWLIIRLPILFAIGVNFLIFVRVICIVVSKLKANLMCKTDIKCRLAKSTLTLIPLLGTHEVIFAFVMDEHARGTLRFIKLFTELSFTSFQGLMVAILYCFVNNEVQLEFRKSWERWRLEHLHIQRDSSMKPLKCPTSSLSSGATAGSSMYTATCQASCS
Chain of hGcgR (P47871 26-477): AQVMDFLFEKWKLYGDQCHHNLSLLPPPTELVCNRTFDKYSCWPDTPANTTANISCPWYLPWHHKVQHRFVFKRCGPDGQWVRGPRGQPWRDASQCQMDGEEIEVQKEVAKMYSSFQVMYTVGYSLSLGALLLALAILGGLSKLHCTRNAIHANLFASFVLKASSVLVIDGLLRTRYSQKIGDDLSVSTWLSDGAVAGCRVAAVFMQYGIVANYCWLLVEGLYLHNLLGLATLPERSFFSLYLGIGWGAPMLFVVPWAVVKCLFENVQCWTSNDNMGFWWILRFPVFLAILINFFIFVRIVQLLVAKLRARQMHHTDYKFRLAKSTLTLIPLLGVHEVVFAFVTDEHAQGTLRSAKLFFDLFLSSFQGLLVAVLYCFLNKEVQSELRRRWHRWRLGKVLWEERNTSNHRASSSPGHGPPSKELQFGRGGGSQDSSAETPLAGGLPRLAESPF
Chain of human GcgR (P47871 26-477): as above

Row | Substance | EC50 (hGLP-1R [1]) | EC50 (human GcgR) | EC50 (hGcgR) | EC50 (hGIPR [2]) | EC50 (hGLP-1R [3]) | EC50 (hGIPR [4])
1 | H-Y[Aib]QGTFTSD[4Pal]SQ[αMeL]LD[Orn]K([γGlu-γGlu-C18 diacid])AQ[αMe4Pal]AFI[dE][αMeY]LIEGGPSSGAPPPSGSEE-NH2 [Example 1044] | 10.7 nM | 2410 nM | 18.8 nM | 88.7 nM | 1110 nM | 0.896 nM
2 | H-Y[Aib]QGTFTSD[4Pal]SQ[αMeL]LD[Orn]K([γGlu-γGlu-C18 diacid])AQ[αMe4Pal]QFIEYLIAGGPSSGAPPPSGSEE-NH2 [Example 1005] | 1.48 nM | 1670 nM | 9.46 nM | 14.5 nM | 171 nM | 0.152 nM
3 | H-Y[Aib]QGTFTSD[4Pal]SQ[αMeL]LD[Orn]K([γGlu-γGlu-C18 diacid])AQ[αMe4Pal]QFIEYLLAGGPSSGAPPPSGSEE-NH2 [Example 1006] | 5.12 nM | 315 nM | 4.28 nM | 11.8 nM | 574 nM | 0.109 nM
4 | H-Y[Aib]QGTFTSD[4Pal]SQ[αMeL]LD[Orn]K([γGlu-γGlu-C18 diacid])AQ[αMe4Pal]QFIE[αMeY]LIEGGPSSGAPPPSGSEE-NH2 [Example 1046] | 1.94 nM | 1680 nM | 10 nM | 85 nM | 528 nM | 0.352 nM
5 | H-Y[Aib]QGTFTSD[4Pal]SR[αMeL]LDKK([AEEA-AEEA-γGlu-C18 diacid])AQ[αMe4Pal]AFIEYLIE[Aib]GPSSGAPPPSGS-NH2 [Example 815] | 2.79 nM | 798 nM | 4.13 nM | 17.9 nM | 342 nM | 0.181 nM
6 | H-Y[Aib]QGTFTSD[4Pal]SR[αMeL]LDKK([AEEA-γGlu-C18 diacid])AQ[Aib]AFIEYLIE[Aib]GPSSGAPPPSGS-NH2 [Example 802] | 1.41 nM | 2520 nM | 16.6 nM | 16.9 nM | 153 nM | 0.124 nM
7 | H-Y[Aib]QGTFTSD[4Pal]SR[αMeL]LDKK([AEEA-γGlu-C18 diacid])AQ[Aib]AFIE[αMeY]LIEGGPSSGAPPPSGS-NH2 [Example 837] | 0.551 nM | 2060 nM | 7.24 nM | 20.7 nM | 69.6 nM | 0.209 nM
8 | H-Y[Aib]QGTFTSD[4Pal]SR[αMeL]LDKK([AEEA-γGlu-C18 diacid])AQ[Aib]AFIE[αMeY]LLEGGPSSGAPPPSGS-NH2 [Example 909] | 1.72 nM | 1740 nM | 6.82 nM | 20.2 nM | 243 nM | 0.121 nM
9 | H-Y[Aib]QGTFTSD[4Pal]SR[αMeL]LDKK([AEEA-γGlu-C18 diacid])AQ[αMe4Pal]AFIEYLIE[Aib]GPSSGAPPPSGS-NH2 [Example 809] | 1.87 nM | 377 nM | 1.74 nM | 20.4 nM | 249 nM | 0.194 nM
10 | H-Y[Aib]QGTFTSD[4Pal]SR[αMeL]LDKK([AEEA-γGlu-C18 diacid])AQ[αMe4Pal]AFIE[αMe4Pal]LIEGGPSSGAPPPSGSEE-NH2 [Example 956] | 4.83 nM | 406 nM | 2.17 nM | 32.1 nM | 643 nM | 0.26 nM
11 | H-Y[Aib]QGTFTSD[4Pal]SR[αMeL]LDKK([γGlu-γGlu-C18 diacid])AQ[αMe4Pal]AFIEYLIAGGESSGAPPPSGSEE-NH2 [Example 965] | 1.39 nM | 430 nM | 3.35 nM | 23.2 nM | 194 nM | 0.13 nM
12 | H-Y[Aib]QGTFTSD[4Pal]SR[αMeL]LDKK([γGlu-γGlu-C18 diacid])AQ[αMe4Pal]AFIEYLIAGGPSSGAPPPSGSEE-NH2 [Example 962] | 1.36 nM | 485 nM | 3.13 nM | 9.71 nM | 132 nM | 0.0972 nM
13 | H-Y[Aib]QGTFTSD[4Pal]SR[αMeL]LDKK([γGlu-γGlu-C18 diacid])AQ[αMe4Pal]AFIE[αMe4Pal]LIEGGPSSGAPPPSGS-NH2 [Example 953] | 2.63 nM | 275 nM | 2.75 nM | 10.9 nM | 347 nM | 0.111 nM
14 | H-Y[Aib]QGTFTSD[4Pal]S[Orn][αMeL]LDKK([AEEA-AEEA-γGlu-C18 diacid])AQ[αMe4Pal]AFIEYLIE[Aib]GPSSGAPPPSGS-NH2 [Example 814] | 3.76 nM | 554 nM | 3.92 nM | 27.8 nM | 649 nM | 0.337 nM
15 | H-Y[Aib]QGTFTSD[4Pal]S[Orn][αMeL]LDKK([AEEA-γGlu-C18 diacid])AQ[Aib]AFIEYLLE[dA]GPSSGAPPPSG[4Pal]-NH2 [Example 274] | 4.9 nM | 1120 nM | 9.37 nM | 27.6 nM | 560 nM | 0.296 nM
16 | H-Y[Aib]QGTFTSD[4Pal]S[Orn][αMeL]LDKK([AEEA-γGlu-C18 diacid])AQ[Aib]AFIEYLLE[dA]GPSS[Aib]APPPSGT-NH2 [Example 275] | 4.93 nM | 882 nM | 7.8 nM | 27.7 nM | 692 nM | 0.318 nM
17 | H-Y[Aib]QGTFTSD[4Pal]S[Orn][αMeL]LDKK([AEEA-γGlu-C18 diacid])AQ[Aib]AFIE[αMeY]LIEGGPSSGAPPPSGS-NH2 [Example 836] | 0.794 nM | 2100 nM | 17.1 nM | 26.7 nM | 103 nM | 0.294 nM
18 | H-Y[Aib]QGTFTSD[4Pal]S[Orn][αMeL]LDKK([AEEA-γGlu-C18 diacid])AQ[αMe4Pal]AFIE[αMe4Pal]LIEGGPSSGAPPPSGS-NH2 [Example 949] | 3.37 nM | 317 nM | 1.62 nM | 26 nM | 721 nM | 0.203 nM
19 | H-Y[Aib]QGTFTSD[4Pal]S[Orn][αMeL]LDKK([AEEA-γGlu-C18 diacid])AQ[αMe4Pal]AFIE[αMe4Pal]LIEGGPSSGAPPPSGSEE-NH2 [Example 955] | 7.74 nM | 366 nM | 2.65 nM | 42.3 nM | 1380 nM | 0.386 nM
20 | H-Y[Aib]QGTFTSD[4Pal]S[Orn][αMeL]LDKK([AEEA-γGlu-γGlu-C18 diacid])AQ[αMe4Pal]AFIEYLIE[Aib]GPSSGAPPPSGS-NH2 [Example 867] | 7.38 nM | 242 nM | 2.47 nM | 16.2 nM | 474 nM | 0.216 nM
21 | H-Y[Aib]QGTFTSD[4Pal]S[Orn][αMeL]LDKK([AEEA-γGlu-γGlu-C18 diacid])AQ[αMe4Pal]AFIE[αMe4Pal]LIE[Aib]GPSSGEPPPSGS-NH2 [Example 987] | 6.33 nM | 267 nM | 3.62 nM | 11.7 nM | 515 nM | 0.194 nM
22 | H-Y[Aib]QGTFTSD[4Pal]S[Orn][αMeL]LDKK([AEEA-γGlu-γGlu-C18 diacid])AQ[αMe4Pal]AFIE[αMe4Pal]LIE[Aib]GPSSGEPPPSGSE-NH2 [Example 988] | 9.5 nM | 320 nM | 2.52 nM | 11.8 nM | 743 nM | 0.198 nM
23 | H-Y[Aib]QGTFTSD[4Pal]S[Orn][αMeL]LDKK([γGlu-AEEA-γGlu-C18 diacid])AQ[αMe4Pal]AFIEYLIE[Aib]GPSSGAPPPSGS-NH2 [Example 868] | 5.82 nM | 622 nM | 7.4 nM | 17.7 nM | 822 nM | 0.208 nM
